Patent publication US20180289665A1, “USE OF CANNABIS TO TREAT MIGRAINE” (ONE WORLD CANNABIS LTD, priority 2014, published 2018)

Tests used:
[1] = system: dural blood vessel dilation; settings: dilation from electrical stimulation, calcitonin gene-related peptide, nitrous oxide and capsaicin; reversed by a cannabinoid antagonist; cited from earlier work
[2] = system: patients with acute migraine attack; test: Clinical trial of THC vs ibuprofen in acute migraine attack (Example 2); assay type: in vivo, human; settings: primary endpoint; assumption for sample size
Excerpt: To assess the effect of Tetrahydrocannabinol (THC) or a derivative thereof vs. NSAIDs (such as ibuprofen) in relieving acute migraine attack.
This example provides a prospective randomized double-blind, placebo-controlled trial.
The study population includes patients presenting with chief complaint an acute migraine attack to the emergency department (ED) at Soroka University Medical Center.
The study population is randomized into “double dummy” design (ratio 1:1): • Group 1—received Tetrahydrocannabinol (THC) and placebo tab ibuprofen. • Group 2—received placebo Tetrahydrocannabinol (THC) drops and tab ibuprofen.
The THC study doses include dose rages of between about 5 mg and up to 50 mg THC, preferably dose ranges of between about 10 mg THC and about 30 mg THC.
According to one embodiment, an ethanol extracted cannabis oil dissolved in a vegetable oil (with a distinct taste to differentiate it from the placebo oil) is used in this study. The aforementioned cannabis composition comprises THC dose range of about 20 mg to about 40 mg.
Headache and nausea severity is assessed using a 4-point pain severity scale (score 0-3) as detailed above. […] Additionally, THC blood levels are measured at about 30, 60 minutes and 2 hours. […]

| Compound | dural blood vessel dilation [1] | expected treatment failure rate [2] [%] |
| --- | --- | --- |
| CCCCC/C=C\C/C=C\C/C=C\C/C=C\CCCC(=O)NCCO [AEA, N-arachidonoylethanolamine] | inhibit | – |
| CCCCCc1cc(O)c2c(c1)OC(C)(C)[C@@H]1CCC(C)=C[C@@H]21 [THC, Δ9-Tetrahydrocannabinol] | – | 40 |
